Results: the NIST ThermoML archive (doi:10.1016/j.jct.2014.05.014)
Numbers after ± are expanded uncertainties.

Test: cn = amount concentration of the nth substance listed, in mol/dm3
Details: 101.3 kPa, Liquid; for electrical conductivity: Alternating current cell with electrodes; for viscosity: Falling or rolling sphere viscometry; for mass density: Vibrating tube method

## CC(N)C(=O)[O-].[Na+] (stereo not drawn) [sodium DL-alaninate] + O
303.15 K, c1 = 0.498
  electrical conductivity: 2.82 ± 0.06 S/m
  mass density: 1021.4 ± 1.6 kg/m3
303.15 K, c1 = 0.99
  electrical conductivity: 4.45 ± 0.09 S/m
303.15 K, c1 = 1.485
  electrical conductivity: 5.36 ± 0.11 S/m
303.15 K, c1 = 1.983
  electrical conductivity: 5.78 ± 0.12 S/m
303.15 K, c1 = 2.476
  electrical conductivity: 5.77 ± 0.12 S/m
303.15 K, c1 = 3.048
  electrical conductivity: 5.43 ± 0.11 S/m
303.15 K, c1 = 0.478
  viscosity: 0.98 ± 0.021 mPa·s
303.15 K, c1 = 0.994
  viscosity: 1.232 ± 0.027 mPa·s
303.15 K, c1 = 1.495
  viscosity: 1.579 ± 0.036 mPa·s
  mass density: 1069 ± 1.7 kg/m3
303.15 K, c1 = 1.975
  viscosity: 2.011 ± 0.049 mPa·s
  mass density: 1090.8 ± 1.8 kg/m3
303.15 K, c1 = 2.496
  viscosity: 2.683 ± 0.071 mPa·s
303.15 K, c1 = 3.032
  viscosity: 3.708 ± 0.1 mPa·s
303.15 K, c1 = 0.985
  mass density: 1045.4 ± 1.7 kg/m3
303.15 K, c1 = 2.467
  mass density: 1113.1 ± 2 kg/m3
303.15 K, c1 = 3.063
  mass density: 1139.4 ± 2.1 kg/m3
308.15 K, c1 = 0.498
  electrical conductivity: 3.11 ± 0.07 S/m
  mass density: 1019.6 ± 1.6 kg/m3
308.15 K, c1 = 0.99
  electrical conductivity: 4.92 ± 0.1 S/m
308.15 K, c1 = 1.485
  electrical conductivity: 5.94 ± 0.12 S/m
308.15 K, c1 = 1.983
  electrical conductivity: 6.45 ± 0.13 S/m
308.15 K, c1 = 2.476
  electrical conductivity: 6.48 ± 0.13 S/m
308.15 K, c1 = 3.048
  electrical conductivity: 6.17 ± 0.12 S/m
308.15 K, c1 = 0.478
  viscosity: 0.877 ± 0.019 mPa·s
308.15 K, c1 = 0.994
  viscosity: 1.099 ± 0.024 mPa·s
308.15 K, c1 = 1.495
  viscosity: 1.423 ± 0.032 mPa·s
  mass density: 1066.9 ± 1.7 kg/m3
308.15 K, c1 = 1.975
  viscosity: 1.771 ± 0.042 mPa·s
  mass density: 1088.5 ± 1.8 kg/m3
308.15 K, c1 = 2.496
  viscosity: 2.341 ± 0.061 mPa·s
308.15 K, c1 = 3.032
  viscosity: 3.187 ± 0.086 mPa·s
308.15 K, c1 = 0.985
  mass density: 1043.4 ± 1.7 kg/m3
308.15 K, c1 = 2.467
  mass density: 1110.7 ± 2 kg/m3
308.15 K, c1 = 3.063
  mass density: 1136.8 ± 2.1 kg/m3
313.15 K, c1 = 0.498
  electrical conductivity: 3.42 ± 0.07 S/m
  mass density: 1017.7 ± 1.6 kg/m3
313.15 K, c1 = 0.99
  electrical conductivity: 5.41 ± 0.11 S/m
313.15 K, c1 = 1.485
  electrical conductivity: 6.54 ± 0.13 S/m
313.15 K, c1 = 1.983
  electrical conductivity: 7.13 ± 0.14 S/m
313.15 K, c1 = 2.476
  electrical conductivity: 7.22 ± 0.14 S/m
313.15 K, c1 = 3.048
  electrical conductivity: 6.94 ± 0.14 S/m
313.15 K, c1 = 0.478
  viscosity: 0.796 ± 0.017 mPa·s
313.15 K, c1 = 0.994
  viscosity: 0.991 ± 0.022 mPa·s
313.15 K, c1 = 1.495
  viscosity: 1.243 ± 0.028 mPa·s
  mass density: 1064.7 ± 1.7 kg/m3
313.15 K, c1 = 1.975
  viscosity: 1.574 ± 0.038 mPa·s
  mass density: 1086.1 ± 1.8 kg/m3
313.15 K, c1 = 2.496
  viscosity: 2.06 ± 0.053 mPa·s
313.15 K, c1 = 3.032
  viscosity: 2.765 ± 0.073 mPa·s
313.15 K, c1 = 0.985
  mass density: 1041.4 ± 1.7 kg/m3
313.15 K, c1 = 2.467
  mass density: 1108.2 ± 1.9 kg/m3
313.15 K, c1 = 3.063
  mass density: 1134 ± 2.1 kg/m3
318.15 K, c1 = 0.498
  electrical conductivity: 3.72 ± 0.08 S/m
  mass density: 1015.7 ± 1.6 kg/m3
318.15 K, c1 = 0.99
  electrical conductivity: 5.89 ± 0.12 S/m
318.15 K, c1 = 1.485
  electrical conductivity: 7.14 ± 0.15 S/m
318.15 K, c1 = 1.983
  electrical conductivity: 7.82 ± 0.16 S/m
318.15 K, c1 = 2.476
  electrical conductivity: 7.98 ± 0.16 S/m
318.15 K, c1 = 3.048
  electrical conductivity: 7.72 ± 0.16 S/m
318.15 K, c1 = 0.478
  viscosity: 0.721 ± 0.016 mPa·s
318.15 K, c1 = 0.994
  viscosity: 0.895 ± 0.02 mPa·s
318.15 K, c1 = 1.495
  viscosity: 1.122 ± 0.025 mPa·s
  mass density: 1062.3 ± 1.7 kg/m3
318.15 K, c1 = 1.975
  viscosity: 1.405 ± 0.033 mPa·s
  mass density: 1083.7 ± 1.8 kg/m3
318.15 K, c1 = 2.496
  viscosity: 1.821 ± 0.046 mPa·s
318.15 K, c1 = 3.032
  viscosity: 2.426 ± 0.064 mPa·s
318.15 K, c1 = 0.985
  mass density: 1039.3 ± 1.7 kg/m3
318.15 K, c1 = 2.467
  mass density: 1105.5 ± 1.9 kg/m3
318.15 K, c1 = 3.063
  mass density: 1131.3 ± 2.1 kg/m3
323.15 K, c1 = 0.498
  electrical conductivity: 4.04 ± 0.08 S/m
  mass density: 1013.4 ± 1.6 kg/m3
323.15 K, c1 = 0.99
  electrical conductivity: 6.38 ± 0.13 S/m
323.15 K, c1 = 1.485
  electrical conductivity: 7.76 ± 0.16 S/m
323.15 K, c1 = 1.983
  electrical conductivity: 8.52 ± 0.17 S/m
323.15 K, c1 = 2.476
  electrical conductivity: 8.73 ± 0.17 S/m
323.15 K, c1 = 3.048
  electrical conductivity: 8.52 ± 0.17 S/m
323.15 K, c1 = 0.478
  viscosity: 0.661 ± 0.014 mPa·s
323.15 K, c1 = 0.994
  viscosity: 0.817 ± 0.018 mPa·s
323.15 K, c1 = 1.495
  viscosity: 1.014 ± 0.023 mPa·s
  mass density: 1059.8 ± 1.7 kg/m3
323.15 K, c1 = 1.975
  viscosity: 1.268 ± 0.03 mPa·s
  mass density: 1081.1 ± 1.8 kg/m3
323.15 K, c1 = 2.496
  viscosity: 1.629 ± 0.041 mPa·s
323.15 K, c1 = 3.032
  viscosity: 2.146 ± 0.056 mPa·s
323.15 K, c1 = 0.985
  mass density: 1036.9 ± 1.7 kg/m3
323.15 K, c1 = 2.467
  mass density: 1102.8 ± 1.9 kg/m3
323.15 K, c1 = 3.063
  mass density: 1128.4 ± 2.1 kg/m3
328.15 K, c1 = 0.498
  electrical conductivity: 4.37 ± 0.09 S/m
  mass density: 1011.1 ± 1.6 kg/m3
328.15 K, c1 = 0.99
  electrical conductivity: 6.87 ± 0.14 S/m
328.15 K, c1 = 1.485
  electrical conductivity: 8.38 ± 0.17 S/m
328.15 K, c1 = 1.983
  electrical conductivity: 9.22 ± 0.19 S/m
328.15 K, c1 = 2.476
  electrical conductivity: 9.5 ± 0.19 S/m
328.15 K, c1 = 3.048
  electrical conductivity: 9.33 ± 0.19 S/m
328.15 K, c1 = 0.478
  viscosity: 0.606 ± 0.013 mPa·s
328.15 K, c1 = 0.994
  viscosity: 0.75 ± 0.016 mPa·s
328.15 K, c1 = 1.495
  viscosity: 0.924 ± 0.021 mPa·s
  mass density: 1057.3 ± 1.7 kg/m3
328.15 K, c1 = 1.975
  viscosity: 1.148 ± 0.027 mPa·s
  mass density: 1078.4 ± 1.8 kg/m3
328.15 K, c1 = 2.496
  viscosity: 1.467 ± 0.037 mPa·s
328.15 K, c1 = 3.032
  viscosity: 1.912 ± 0.049 mPa·s
328.15 K, c1 = 0.985
  mass density: 1034.5 ± 1.7 kg/m3
328.15 K, c1 = 2.467
  mass density: 1100.2 ± 1.9 kg/m3
328.15 K, c1 = 3.063
  mass density: 1125.4 ± 2.1 kg/m3
333.15 K, c1 = 0.498
  electrical conductivity: 4.68 ± 0.1 S/m
  mass density: 1008.7 ± 1.6 kg/m3
333.15 K, c1 = 0.99
  electrical conductivity: 7.37 ± 0.15 S/m
333.15 K, c1 = 1.485
  electrical conductivity: 8.99 ± 0.18 S/m
333.15 K, c1 = 1.983
  electrical conductivity: 9.93 ± 0.2 S/m
333.15 K, c1 = 2.476
  electrical conductivity: 10.3 ± 0.21 S/m
333.15 K, c1 = 3.048
  electrical conductivity: 10.1 ± 0.2 S/m
333.15 K, c1 = 0.478
  viscosity: 0.559 ± 0.012 mPa·s
333.15 K, c1 = 0.994
  viscosity: 0.687 ± 0.015 mPa·s
333.15 K, c1 = 1.495
  viscosity: 0.847 ± 0.019 mPa·s
  mass density: 1054.6 ± 1.7 kg/m3
333.15 K, c1 = 1.975
  viscosity: 1.047 ± 0.025 mPa·s
  mass density: 1075.7 ± 1.8 kg/m3
333.15 K, c1 = 2.496
  viscosity: 1.326 ± 0.033 mPa·s
333.15 K, c1 = 3.032
  viscosity: 1.718 ± 0.044 mPa·s
333.15 K, c1 = 0.985
  mass density: 1032 ± 1.7 kg/m3
333.15 K, c1 = 2.467
  mass density: 1097.2 ± 1.9 kg/m3
333.15 K, c1 = 3.063
  mass density: 1122.4 ± 2.1 kg/m3
338.15 K, c1 = 0.498
  electrical conductivity: 5.01 ± 0.1 S/m
  mass density: 1006 ± 1.6 kg/m3
338.15 K, c1 = 0.99
  electrical conductivity: 7.87 ± 0.16 S/m
338.15 K, c1 = 1.485
  electrical conductivity: 9.62 ± 0.2 S/m
338.15 K, c1 = 1.983
  electrical conductivity: 10.7 ± 0.21 S/m
338.15 K, c1 = 2.476
  electrical conductivity: 11 ± 0.22 S/m
338.15 K, c1 = 3.048
  electrical conductivity: 11 ± 0.22 S/m
338.15 K, c1 = 0.478
  viscosity: 0.52 ± 0.011 mPa·s
338.15 K, c1 = 0.994
  viscosity: 0.638 ± 0.014 mPa·s
338.15 K, c1 = 1.495
  viscosity: 0.778 ± 0.017 mPa·s
  mass density: 1051.8 ± 1.7 kg/m3
338.15 K, c1 = 1.975
  viscosity: 0.96 ± 0.022 mPa·s
  mass density: 1072.9 ± 1.8 kg/m3
338.15 K, c1 = 2.496
  viscosity: 1.206 ± 0.03 mPa·s
338.15 K, c1 = 3.032
  viscosity: 1.546 ± 0.039 mPa·s
338.15 K, c1 = 0.985
  mass density: 1029.3 ± 1.7 kg/m3
338.15 K, c1 = 2.467
  mass density: 1094.3 ± 1.9 kg/m3
338.15 K, c1 = 3.063
  mass density: 1119.4 ± 2.1 kg/m3
343.15 K, c1 = 0.498
  electrical conductivity: 5.34 ± 0.11 S/m
  mass density: 1003.1 ± 1.6 kg/m3
343.15 K, c1 = 0.99
  electrical conductivity: 8.38 ± 0.17 S/m
343.15 K, c1 = 1.485
  electrical conductivity: 10.2 ± 0.21 S/m
343.15 K, c1 = 1.983
  electrical conductivity: 11.3 ± 0.23 S/m
343.15 K, c1 = 2.476
  electrical conductivity: 11.8 ± 0.24 S/m
343.15 K, c1 = 3.048
  electrical conductivity: 11.8 ± 0.24 S/m
343.15 K, c1 = 0.478
  viscosity: 0.484 ± 0.01 mPa·s
343.15 K, c1 = 0.994
  viscosity: 0.591 ± 0.013 mPa·s
343.15 K, c1 = 1.495
  viscosity: 0.729 ± 0.016 mPa·s
  mass density: 1049 ± 1.7 kg/m3
343.15 K, c1 = 1.975
  viscosity: 0.881 ± 0.02 mPa·s
  mass density: 1069.9 ± 1.8 kg/m3
343.15 K, c1 = 2.496
  viscosity: 1.102 ± 0.027 mPa·s
343.15 K, c1 = 3.032
  viscosity: 1.408 ± 0.035 mPa·s
343.15 K, c1 = 0.985
  mass density: 1026.4 ± 1.7 kg/m3
343.15 K, c1 = 2.467
  mass density: 1091.2 ± 1.9 kg/m3
343.15 K, c1 = 3.063
  mass density: 1116.2 ± 2.1 kg/m3
